Measurements taken from ChEMBL document CHEMBL5465560, “Selectivity Literature for EUbOPEN Chemogenomic Library” (2024).

Columns and labels:
[1] = target: Protein kinase C eta type (Homo sapiens) (UniProt P24723); assay: Selectivity interaction (KinomeScan (DiscoverX)) EUB0001049a PRKCH; conditions: at 1 µM
[2] = target: Serine/threonine-protein kinase 10 (Homo sapiens) (UniProt O94804); assay: Selectivity interaction (ActivX KiNativ screen (kinase selectivity in THP-1 cell lysates)) EUB0000639a STK10; type: subcellular; conditions: lysate, at 0.2 µM
Chain of Serine/threonine-protein kinase 10 (Homo sapiens) (O94804 whole entry, looked up): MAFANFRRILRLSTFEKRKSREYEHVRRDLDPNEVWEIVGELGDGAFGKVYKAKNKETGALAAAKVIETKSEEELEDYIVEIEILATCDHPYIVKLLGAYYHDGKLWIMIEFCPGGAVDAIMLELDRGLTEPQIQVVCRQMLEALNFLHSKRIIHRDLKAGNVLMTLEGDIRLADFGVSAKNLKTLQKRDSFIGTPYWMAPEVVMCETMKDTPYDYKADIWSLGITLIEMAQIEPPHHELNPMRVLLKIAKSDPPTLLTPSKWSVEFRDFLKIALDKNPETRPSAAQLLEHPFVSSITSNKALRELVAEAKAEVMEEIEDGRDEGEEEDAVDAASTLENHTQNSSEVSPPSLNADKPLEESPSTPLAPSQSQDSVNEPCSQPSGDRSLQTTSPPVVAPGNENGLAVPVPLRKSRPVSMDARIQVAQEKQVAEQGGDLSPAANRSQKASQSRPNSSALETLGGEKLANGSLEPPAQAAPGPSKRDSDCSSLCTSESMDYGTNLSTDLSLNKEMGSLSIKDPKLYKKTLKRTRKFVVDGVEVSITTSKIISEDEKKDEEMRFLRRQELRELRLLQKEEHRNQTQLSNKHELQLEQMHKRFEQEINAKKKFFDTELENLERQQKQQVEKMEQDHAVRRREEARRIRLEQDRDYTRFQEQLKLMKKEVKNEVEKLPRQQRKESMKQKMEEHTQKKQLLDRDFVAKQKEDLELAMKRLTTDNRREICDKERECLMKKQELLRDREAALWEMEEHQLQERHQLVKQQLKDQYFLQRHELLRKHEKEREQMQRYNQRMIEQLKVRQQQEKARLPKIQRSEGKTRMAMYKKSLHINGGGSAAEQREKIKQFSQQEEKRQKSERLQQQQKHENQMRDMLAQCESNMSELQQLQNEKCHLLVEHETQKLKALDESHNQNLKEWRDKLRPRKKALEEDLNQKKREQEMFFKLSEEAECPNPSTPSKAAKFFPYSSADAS

[3] = target: T1, Ephrin type-B receptor 4 (Homo sapiens) (UniProt P54760); assay: Selectivity interaction (KinomeScan (DiscoverX)) EUB0000655a EPHB4; conditions: at 10 µM
T1 sequence (whole entry): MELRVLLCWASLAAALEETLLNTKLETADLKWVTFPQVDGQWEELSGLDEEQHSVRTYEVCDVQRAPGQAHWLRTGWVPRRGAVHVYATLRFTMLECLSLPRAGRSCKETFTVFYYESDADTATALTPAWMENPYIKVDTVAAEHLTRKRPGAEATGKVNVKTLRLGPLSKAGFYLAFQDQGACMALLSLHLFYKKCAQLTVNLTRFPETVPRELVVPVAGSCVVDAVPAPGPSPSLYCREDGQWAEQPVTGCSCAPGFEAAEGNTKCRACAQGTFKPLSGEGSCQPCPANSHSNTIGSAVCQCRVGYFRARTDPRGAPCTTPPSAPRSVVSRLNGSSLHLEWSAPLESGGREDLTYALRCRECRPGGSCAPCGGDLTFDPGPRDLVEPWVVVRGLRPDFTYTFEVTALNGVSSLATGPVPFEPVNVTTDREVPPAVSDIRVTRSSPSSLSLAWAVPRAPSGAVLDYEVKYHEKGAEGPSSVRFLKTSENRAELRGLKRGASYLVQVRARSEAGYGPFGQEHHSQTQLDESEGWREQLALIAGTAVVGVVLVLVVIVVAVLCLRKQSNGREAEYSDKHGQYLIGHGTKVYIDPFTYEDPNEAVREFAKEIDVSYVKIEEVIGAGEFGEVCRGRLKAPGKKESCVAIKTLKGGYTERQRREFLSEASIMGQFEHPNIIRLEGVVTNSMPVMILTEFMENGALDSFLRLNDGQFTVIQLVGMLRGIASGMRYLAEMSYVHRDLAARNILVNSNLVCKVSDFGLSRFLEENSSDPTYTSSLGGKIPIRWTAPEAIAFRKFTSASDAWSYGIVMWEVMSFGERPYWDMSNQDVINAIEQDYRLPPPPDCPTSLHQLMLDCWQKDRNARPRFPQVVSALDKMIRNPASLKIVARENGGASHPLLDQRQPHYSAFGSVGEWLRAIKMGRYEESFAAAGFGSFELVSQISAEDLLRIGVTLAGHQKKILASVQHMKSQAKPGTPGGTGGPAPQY

[4] = target: SRSF protein kinase 3 (Homo sapiens) (UniProt Q9UPE1); assay: Selectivity interaction (KinomeScan (DiscoverX)) EUB0000695a SRPK3; conditions: at 100 nM
Chain of SRSF protein kinase 3 (Homo sapiens) (Q9UPE1 whole entry): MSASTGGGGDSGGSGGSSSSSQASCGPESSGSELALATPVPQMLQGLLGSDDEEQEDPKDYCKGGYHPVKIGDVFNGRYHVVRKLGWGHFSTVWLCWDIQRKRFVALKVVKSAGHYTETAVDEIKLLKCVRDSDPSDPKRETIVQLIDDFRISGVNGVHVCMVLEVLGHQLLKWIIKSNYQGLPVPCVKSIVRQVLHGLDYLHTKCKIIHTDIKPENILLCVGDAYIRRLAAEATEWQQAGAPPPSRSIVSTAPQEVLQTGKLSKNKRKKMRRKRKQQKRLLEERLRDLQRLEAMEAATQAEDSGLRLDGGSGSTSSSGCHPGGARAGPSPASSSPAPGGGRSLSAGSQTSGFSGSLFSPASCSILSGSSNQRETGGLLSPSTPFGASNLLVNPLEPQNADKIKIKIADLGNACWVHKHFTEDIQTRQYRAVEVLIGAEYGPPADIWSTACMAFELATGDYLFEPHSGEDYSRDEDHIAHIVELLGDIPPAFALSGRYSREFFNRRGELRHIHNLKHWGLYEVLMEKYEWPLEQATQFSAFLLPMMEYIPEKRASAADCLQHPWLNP

[5] = target: T2, Serine/threonine-protein kinase D2 (Homo sapiens) (UniProt Q9BZL6); assay: Selectivity interaction (SelectScreen profiling (Invitrogen)) EUB0000607a PRKD2; conditions: at 2 µM
T2 sequence (whole entry): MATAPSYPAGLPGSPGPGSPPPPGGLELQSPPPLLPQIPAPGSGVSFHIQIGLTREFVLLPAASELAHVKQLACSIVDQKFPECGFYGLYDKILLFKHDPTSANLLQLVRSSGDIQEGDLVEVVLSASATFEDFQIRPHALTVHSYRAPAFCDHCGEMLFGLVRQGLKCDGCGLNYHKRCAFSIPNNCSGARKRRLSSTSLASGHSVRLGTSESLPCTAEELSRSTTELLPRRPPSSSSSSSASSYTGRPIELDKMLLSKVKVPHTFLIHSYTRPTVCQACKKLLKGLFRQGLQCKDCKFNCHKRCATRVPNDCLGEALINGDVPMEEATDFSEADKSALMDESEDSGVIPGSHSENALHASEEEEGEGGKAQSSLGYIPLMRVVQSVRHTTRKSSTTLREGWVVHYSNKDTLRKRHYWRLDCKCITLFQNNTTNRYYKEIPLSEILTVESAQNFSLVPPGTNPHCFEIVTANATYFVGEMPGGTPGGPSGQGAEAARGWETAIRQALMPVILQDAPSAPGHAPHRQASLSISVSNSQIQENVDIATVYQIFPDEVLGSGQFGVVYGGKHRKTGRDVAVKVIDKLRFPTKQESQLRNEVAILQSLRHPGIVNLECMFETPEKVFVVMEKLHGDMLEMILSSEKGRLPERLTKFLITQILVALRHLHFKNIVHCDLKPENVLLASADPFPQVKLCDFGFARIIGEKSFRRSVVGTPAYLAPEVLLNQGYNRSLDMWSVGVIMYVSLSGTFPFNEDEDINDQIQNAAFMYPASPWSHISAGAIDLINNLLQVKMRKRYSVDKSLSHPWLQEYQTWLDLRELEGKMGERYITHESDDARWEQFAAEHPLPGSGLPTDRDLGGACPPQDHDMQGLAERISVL

[6] = target: T3, Tyrosine-protein kinase ZAP-70 (Homo sapiens) (UniProt P43403); assay: Selectivity interaction (ProQinase) EUB0000171b ZAP70
T3 sequence (whole entry): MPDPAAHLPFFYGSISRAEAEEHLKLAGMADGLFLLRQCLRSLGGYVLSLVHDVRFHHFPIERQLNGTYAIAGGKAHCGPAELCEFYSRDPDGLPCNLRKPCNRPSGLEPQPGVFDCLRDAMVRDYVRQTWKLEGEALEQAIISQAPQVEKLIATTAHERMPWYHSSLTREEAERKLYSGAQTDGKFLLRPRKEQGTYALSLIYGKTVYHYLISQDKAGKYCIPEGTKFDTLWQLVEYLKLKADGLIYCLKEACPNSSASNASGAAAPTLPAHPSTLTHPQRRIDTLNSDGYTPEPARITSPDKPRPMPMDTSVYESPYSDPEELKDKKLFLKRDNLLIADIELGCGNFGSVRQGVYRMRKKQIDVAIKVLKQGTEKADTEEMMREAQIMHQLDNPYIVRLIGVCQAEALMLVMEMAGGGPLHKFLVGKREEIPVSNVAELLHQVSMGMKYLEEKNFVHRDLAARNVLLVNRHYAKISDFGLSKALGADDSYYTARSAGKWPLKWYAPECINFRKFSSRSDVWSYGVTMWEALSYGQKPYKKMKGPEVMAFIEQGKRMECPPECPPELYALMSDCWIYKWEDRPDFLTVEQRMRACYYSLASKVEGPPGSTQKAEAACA

Chain of Protein kinase C eta type (Homo sapiens) (P24723 whole entry): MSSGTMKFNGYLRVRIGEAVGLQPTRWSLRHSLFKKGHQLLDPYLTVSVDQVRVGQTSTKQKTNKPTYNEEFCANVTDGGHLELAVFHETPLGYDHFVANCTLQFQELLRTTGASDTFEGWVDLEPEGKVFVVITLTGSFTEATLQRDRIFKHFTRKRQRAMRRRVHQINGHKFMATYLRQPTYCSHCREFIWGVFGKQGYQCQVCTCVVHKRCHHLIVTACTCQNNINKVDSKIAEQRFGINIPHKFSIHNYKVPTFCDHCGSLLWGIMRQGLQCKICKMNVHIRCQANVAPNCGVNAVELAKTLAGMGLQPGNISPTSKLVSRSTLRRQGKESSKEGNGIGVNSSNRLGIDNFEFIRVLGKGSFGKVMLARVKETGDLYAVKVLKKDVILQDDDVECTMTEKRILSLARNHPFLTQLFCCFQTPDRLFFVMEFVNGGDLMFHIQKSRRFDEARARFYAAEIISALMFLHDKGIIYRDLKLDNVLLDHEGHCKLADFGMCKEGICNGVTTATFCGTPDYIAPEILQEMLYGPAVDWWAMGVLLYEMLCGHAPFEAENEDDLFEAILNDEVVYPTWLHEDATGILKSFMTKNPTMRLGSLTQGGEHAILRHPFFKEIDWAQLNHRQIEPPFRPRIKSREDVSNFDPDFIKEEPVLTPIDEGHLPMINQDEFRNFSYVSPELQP

## COc1cc(Nc2nc(C)cc(-c3cnn4nc(OC)ccc34)n2)cc(C(F)(F)F)c1
[1]
  % of control: 100%

## CC[C@@H]1[C@H](F)C(=O)N[C@@H]1COc1nccc2cc(C(N)=O)c(OC)cc12 [ZIMLOVISERTIB]
[2]
  % of inhibition: -43.2%

## CN(C)CCOc1ccc(-c2nc(-c3ccncc3)c(-c3ccc4c(c3)CC/C4=N\O)[nH]2)cc1
[3]
  % of control: 100%

## Cc1cc(F)c(C(=O)Nc2cccc(-c3nncn3C(C)C)n2)cc1-n1cnc(C2CC2)c1
[4]
  % of control: 100%

## CNC(=O)Nc1ccc(-c2nc(N3CC4CCC(C3)O4)c3cnn(C4CCC5(CC4)OCCO5)c3n2)cc1
[5]
  % of inhibition: 1%

## C=CC(=O)Nc1cccc(C(=O)Nc2ccc(Nc3cc(-c4[nH]c(SC)nc4C)ccn3)cc2)c1
[6]; at 1 µM
  % of control: 88%
[6]; at 5 µM
  % of control: 93%
